Data published in patent US10821118B2, “Oral transmucosal drug delivery system” (ABON PHARMACEUTICALS, LLC, priority 2012, dated 2020).
≈ marks a conversion by molar mass, not a printed value.

Columns and labels:
[1] = Heat of fusion of testosterone by DSC, molten / heat treated testosterone-agent samples; format: physicochemical; conditions: pure crystalline testosterone, at melting point of about 150° C.
Protocol: The heat of fusion (ΔHf) can be measured via Differential Scanning calorimetry (DSC).
Talc is an inert purified hydrated magnesium silicate with a melting point of 1500° C.

[2] = Testosterone solubility in aqueous media (SSF) containing various CIAs; format: physicochemical; conditions: Simulated Saliva Fluid (SSF) containing CIA, thermodynamic from solid, Solubility of Testosterone in CIA Containing SSF
Protocol: Then the sample was filtered through a 0.45 μm polyvinylidene fluoride (PVDF) and the filtrate was analyzed by HPLC.

[3] = test system: Sex Hormone Binding Globulin (SHBG), albumin; conditions: cited from earlier work
[4] = Solubility of crystalline drug in water; conditions: 37 °C
[5] = Solubility of testosterone in molten CIA systems
Protocol: In each solubility study, a molten solvent of single or combination CIA was prepared by heating and melting the CIA system using a water bath. […] The melt suspension was mixed for at least another 30 minutes while maintaining the CIA's molten state.

C[C@]12CC[C@H]3[C@@H](CCC4=CC(=O)CC[C@@]43C)[C@@H]1CC[C@@H]2O [Testosterone]
heat of fusion (ΔHf) [1]: about 102.4 J/g
solubility ([2]; aqueous with cosolvent or surfactant or cyclodextrin, SSF with 0.25% vitamin E-TPGS): 60.8 µg/mL (≈ 211 µM)
solubility ([2]; aqueous with cosolvent or surfactant or cyclodextrin, SSF with 0.5% vitamin E-TPGS): 90.1 µg/mL (≈ 312 µM)
solubility ([2]; aqueous with cosolvent or surfactant or cyclodextrin, SSF with 5% lauroyl polyoxyl-32 glycerides): 358 µg/mL (≈ 1240 µM)
solubility ([2]; aqueous with cosolvent or surfactant or cyclodextrin, SSF with 5% oleic acid (oleic acid itself not soluble in SSF)): 27 µg/mL (≈ 93.6 µM)
solubility ([2]; aqueous with cosolvent or surfactant or cyclodextrin, SSF with 5% polyethylene glycol): 32 µg/mL (≈ 111 µM)
solubility ([2]; aqueous with cosolvent or surfactant or cyclodextrin, SSF with 5% vitamin E-TPGS): 600 µg/mL (≈ 2080 µM)
solubility ([2]; aqueous with cosolvent or surfactant or cyclodextrin, SSF with 10% lauroyl polyoxyl-32 glycerides): 694 µg/mL (≈ 2410 µM)
solubility ([2]; aqueous with cosolvent or surfactant or cyclodextrin, SSF with 10% oleic acid (oleic acid itself not soluble in SSF)): 29 µg/mL (≈ 101 µM)
solubility ([2]; aqueous with cosolvent or surfactant or cyclodextrin, SSF with 10% polyethylene glycol): 45 µg/mL (≈ 156 µM)
solubility ([2]; aqueous with cosolvent or surfactant or cyclodextrin, SSF with 10% vitamin E-TPGS): 1210 µg/mL (≈ 4200 µM)
solubility ([2]; aqueous with cosolvent or surfactant or cyclodextrin, SSF with 20% lauroyl polyoxyl-32 glycerides): 1350 µg/mL (≈ 4670 µM)
solubility ([2]; aqueous with cosolvent or surfactant or cyclodextrin, SSF with 20% oleic acid (oleic acid itself not soluble in SSF)): 29 µg/mL (≈ 101 µM)
solubility ([2]; aqueous with cosolvent or surfactant or cyclodextrin, SSF with 20% polyethylene glycol): 69.4 µg/mL (≈ 241 µM)
solubility ([2]; aqueous with cosolvent or surfactant or cyclodextrin, SSF with 20% vitamin E-TPGS): 2250 µg/mL (≈ 7800 µM)
solubility ([2]; aqueous with cosolvent or surfactant or cyclodextrin, saturated CIA solution, 0.34 g/mL of lauroyl polyoxyl-32 glycerides in SSF): 2370 µg/mL (≈ 8220 µM)
solubility ([2]; aqueous with cosolvent or surfactant or cyclodextrin, saturated CIA solution, 0.53 g of vitamin E TPGS in SSF): 4190 µg/mL (≈ 14500 µM)
solubility ([2]; aqueous with cosolvent or surfactant or cyclodextrin, saturated CIA solution, 1.73 g/mL of polyethylene glycol in SSF): 1600 µg/mL (≈ 5550 µM)
solubility ([2]; fassgf or other biorelevant, SSF with 0.25% polyethylene glycol): 28.1 µg/mL (≈ 97.4 µM)
solubility ([2]; fassgf or other biorelevant, SSF with 0.5% polyethylene glycol): 27.8 µg/mL (≈ 96.4 µM)
protein bound in the blood circulation ([3]; blood circulation): 96%
'free' ([3]; in males): 2-3%
bound to Sex Hormone Binding Globulin (SHBG) ([3]; in males): about 44%
bound to albumin ([3]; in males): 50%
solubility [4]: ~27 µg/mL (≈ 93.6 µM)
Solubility of Testosterone in CIA, Theoretical ([5]; Table 24: PEG 8000 50% / oleic acid 50%): 117.1 mg/gm
Solubility of Testosterone in CIA, Actual ([5]; Table 24: molten PEG 8000 50% / oleic acid 50%): 136.2 mg/gm
Solubility of Testosterone in CIA, Actual ([5]; Table 24: molten PEG 8000 50% / vitamin E-TPGS 50%): 137.9 mg/gm
Solubility of Testosterone in CIA, Actual ([5]; Table 24: molten oleic acid 50% / vitamin E-TPGS 50%): 123.6 mg/gm
Solubility of Testosterone in CIA, Actual ([5]; Table 24: molten oleic acid 100%): 58.3 mg/gm
Solubility of Testosterone in CIA, Actual ([5]; Table 24: molten oleic acid 100%, listed as testosterone): about 58.3 mg/gm
Solubility of Testosterone in CIA, Actual ([5]; Table 24: molten polyethylene glycol 8000 100%): 175.9 mg/gm
Solubility of Testosterone in CIA, Actual ([5]; Table 24: molten polyethylene glycol 8000 100%, listed as testosterone): about 175.9 mg/gm
Solubility of Testosterone in CIA, Actual ([5]; Table 24: molten vitamin E-TPGS 100%): 78.9 mg/gm
Solubility of Testosterone in CIA, Actual ([5]; Table 24: molten vitamin E-TPGS 100%, listed as testosterone): about 78.9 mg/gm
Solubility of Testosterone in CIA, Theoretical ([5]; Table 25: PEG 8000 50% / lauroyl polyoxyl-32 glycerides 50%): 130.0 mg/gm
Solubility of Testosterone in CIA, Theoretical ([5]; Table 25: PEG 8000 50% / vitamin E TPGS 50%): 130.6 mg/gm
Solubility of Testosterone in CIA, Actual ([5]; Table 25: molten PEG 8000 50% / lauroyl polyoxyl-32 glycerides 50%): 129.9 mg/gm
Solubility of Testosterone in CIA, Actual ([5]; Table 25: molten PEG 8000 50% / vitamin E TPGS 50%): 144.2 mg/gm
Solubility of Testosterone in CIA, Actual ([5]; Table 25: molten lauroyl polyoxyl-32 glycerides 100%): 81.6 mg/gm
Solubility of Testosterone in CIA, Actual ([5]; Table 25: molten polyethylene glycol 8000 100%): 178.4 mg/gm
Solubility of Testosterone in CIA, Actual ([5]; Table 25: molten vitamin E TPGS 50% / lauroyl polyoxyl-32 glycerides 50%): 114.6 mg/gm
Solubility of Testosterone in CIA, Actual ([5]; Table 25: molten vitamin E TPGS 100%): 82.7 mg/gm
Solubility of Testosterone in CIA, Theoretical ([5]; Table 25: vitamin E TPGS 50% / lauroyl polyoxyl-32 glycerides 50%): 82.2 mg/gm
Solubility of Testosterone in CIA, Actual ([5]; […]): 136.6 mg/gm
